SMILES strings stand for the structures.

For orientation: melting point means the temperature, or range, at which the solid turns liquid. As for `COc1ccc(-c2cn3ccccc3n2)cc1OC`, the melting point stood at 96 °C.
`COc1ccc(C2=NN(C3CCN(C(=O)CCCOc4ccc5[nH]c(=O)ccc5c4)CC3)C(=O)[C@@H]3CC=CC[C@H]23)cc1OC` had a melting point of 146 to 149 °C.
For `CCOC(=O)Cc1cccc(C(=O)c2ccccc2)c1N` the value was 77 to 78 °C.
Compound `Cc1cc2cc(CN3CCCC3)cnc2cc1NC(=O)c1ccc(-c2ccc(F)cc2F)cc1` showed a melting point of 158 to 160 °C.
The compound `COc1ccc2nc(-c3ccc([N+](=O)[O-])cc3)sc2c1` showed a melting point of 216 to 217 °C.
For `CC(Cc1cccc([N+](=O)[O-])c1)[N+](=O)[O-]` (centres undefined) the value was 56 to 58 °C.
In the case of `COc1cc(CCCOc2c(CC(=O)O)cccc2OC)n(Cc2ccc(Cl)cc2Cl)n1`, the melting point fell in the range of 111 to 112 °C.
`CCCCc1nc(=O)n2ncc(Br)c2[nH]1` came in with a melting point of 188 °C.
For `Cc1cc(N2CCN(C(=O)NCCCCC3CCSS3)CC2)ccc1N=C(N)c1cccs1` (centres undefined) the value was 169 to 171 °C; for `CCCCCCCCSc1ccc(CC(CO)(CO)NC(C)=O)cc1`, 76 to 78 °C.
For `COc1ccc(C2=NN(C3CCOCC3)C(=O)[C@H]3CC=CC[C@@H]23)cc1OC` (relative stereo) the value was 175 to 177 °C; for `COc1ccc(S(=O)(=O)n2ccc3ccnc(-c4ccc([N+](=O)[O-])cc4)c32)cc1`, 178 to 179 °C.
Turning to `O=C1Nc2ccccc2Cc2sccc21`, the melting point was 225 to 236 °C.
`CCCCCCCC(=N)NC(=S)Nc1ccc(Cl)cc1` had a melting point of 98 to 99 °C.
For `CC(=O)Nc1ccc(-c2cc3[nH]c(=O)[nH]c3nc2C)cc1` the value was more than 300 °C; for `CC(=O)NC1CCNC(c2ncccc2Cl)C1` (centres undefined), 118 to 120 °C.
For `O=C1CCC(c2ccccc2)(c2ccccc2)[C@@H]2CN(C(=O)Cc3ccc(F)cc3)C[C@H]12` (racemic) the value was 210 °C; for `CCOCc1nc2c(N)nc(C)c(C)c2n1CCNS(C)(=O)=O`, 185 to 187 °C.
For `CC(=O)Nc1cc2c(cc1Oc1ccc(F)cc1F)CCC2c1ccccc1` (centres undefined), the melting point is 117 °C.
For `O=C1SC[C@H]2[C@@H]1N(Cc1ccccc1)C(=O)N2Cc1ccccc1` (relative stereo) the value was 118 to 119 °C.
Consider `COc1cc(CCCC2OC(=O)NC2=O)ccc1OCc1coc(/C=C/c2ccccc2)n1` (centres undefined), for which the melting point lay in the range of 178 to 179 °C.
In the case of `COC(=O)CCc1cc2cc(Cl)ccc2n1S(=O)(=O)c1ccc(F)cc1`, the melting point fell in the range of 129 to 131 °C.
In turn, `CC1=C(Nc2ccc(C3=NNC(=O)CC3C)cc2)CCC1=O` (centres undefined) showed a melting point of 285 to 286 °C.
Take `CC1CC(=O)N(CCO)N=C1c1ccc2c(c1)CCC(=O)N2C` (centres undefined): the melting point was 171 to 173 °C.
`CC(C)C(C)(NC(=O)c1nc2ccc(OC(F)F)cc2cc1C(=O)O)C(N)=O` (centres undefined) displayed a melting point of 194 to 196 °C.
`CC(C)c1nc(CO)c(CO)[nH]1` returned a melting point of 200 to 201 °C.
The compound `O=C(CCCCCNCc1cc2nc(-c3cccc4[nH]ncc34)nc(N3CCOCC3)c2s1)NO` displayed a melting point of 128 to 130 °C.
The compound `CCCc1nc(C=O)c[nH]1` had a melting point of 104 to 106 °C.
For `Cn1cccc1C(=O)c1cc([N+](=O)[O-])ccc1Cl` the value was 108 to 110 °C; for `Cc1cc(C)n(-c2nccc(NC3CCCCC3)n2)n1`, 144 to 147 °C; for `CCCCCCCCCCCCCCCCOc1cc(CO)cc(CO)c1`, 90 °C.
For `c1ccc(CNc2nnc(Cc3ccncc3)c3ccccc23)cc1` the value was 137 to 138 °C.
For `Nc1ccnn1-c1c(Cl)cc(C(F)(F)F)cc1Cl` the value was 90 to 94 °C; for `CCC(CC)CNC(=O)c1ccc2c(c1)N(C(C)CN1CCCC1)c1ccccc1S2` (racemic), 115 °C.
As to `CCOC(=O)c1cc(C(C)=O)[nH]n1`, the melting point was 114 to 115 °C.
`CC(C)Cn1nnc(-c2cccc(-c3ccnc4c(C(=O)c5cccs5)cnn34)c2)n1` yielded a melting point of 141 °C.
For `CC1(C)Oc2ccc(CC3SC(=O)NC3=O)cc2CC1c1ccccc1` (centres undefined) the value was 53 to 68 °C; for `CCOc1cc2ncc(C#N)c(Nc3ccc4c(c3)OCCO4)c2cc1OCC`, 225 to 227 °C; for `CCOC(=O)C(NC(=O)CNC(=O)CCl)C(=O)OCC`, 104 to 105 °C.
`COc1ccc(N2CCN(c3c(C)c(C)c4c(c3C)C(c3ccccc3)C(C)(C)O4)CC2)cc1` (centres undefined) displayed a melting point of 126 to 128 °C.
For the compound `COc1cccc2c1nc(C(F)F)n2-c1nc(Nc2ccc(N(C)S(C)(=O)=O)nc2)nc(N2CCOCC2)n1`, the melting point lay within 250 to 253 °C.
Turning to `Nc1ccc(S(=O)(=O)c2ccnc(N3CCCC3)c2)cc1`, the melting point is 186 to 187 °C.
As to `NC(=O)C1(N2C(=O)c3ccccc3C2=O)CCCCC1`, the melting point is 224 to 226 °C.
Compound `C(=NC1CCCCC1)c1cccc(Oc2ccccc2)c1` had a melting point of 72 to 74 °C.
For `Cc1nc(-c2cccc(Cl)c2)c2cc(C(=O)c3ccc(Cl)cc3)ccc2n1` the value was 182 °C.
For `CCN(CC)c1ccc(C2(N(c3ccccc3)c3ccc(N(C)C)cc3)OC(=O)c3ccccc32)c(C)c1` (centres undefined) the value was 154 to 156 °C; for `Oc1ccc(-c2noc3cc(O)ccc23)c(O)c1`, 300 to 305 °C; for `COCCNC(=O)c1cccc(-c2cccc3nc(Cc4cccc(C(F)(F)F)c4)sc23)c1`, 101 to 102 °C.
For `COCC1COc2cc3ncnc(Nc4cc(Cl)cc(Cl)c4)c3cc2O1` (centres undefined) the value was 269 to 274 °C; for `CCC1(CBr)Cc2cc(OC)c3c(c2C(c2ccccc2)=N1)CC(CC)(CC)O3` (centres undefined), 108 to 110 °C; for `CN(C)CCCn1nnc(-c2ccc3c(c2)S(=O)(=O)c2ccccc2C3=O)n1`, 141 to 142 °C.
Compound `COc1cc(C(=O)c2ccc(N)c(C(=O)O)c2)n2ccccc12` gave a melting point of 106 °C.
For `C=Cc1ccc2[nH]cc(S(=O)(=O)c3ccccc3)c2c1` the value was 140 to 145 °C.
Compound `O=C(CCc1cc2cccnc2n(-c2cccc([N+](=O)[O-])c2)c1=O)c1ccncc1` returned a melting point of 200 to 202 °C.
Compound `COc1ccc2c(Cl)cc(-c3ccc(Cl)c(Cl)c3)nc2c1` showed a melting point of 122 to 131 °C.
In turn, `CC#CCOc1cc(Oc2ccc(F)c(C(F)(F)F)c2)ncn1` showed a melting point of 90.1 °C.
The compound `Cc1noc(NS(=O)(=O)c2cccc(-c3ccccc3)c2)c1Br` came in with a melting point of 78 to 82 °C.
For `Cc1sc(Cc2ccc(Br)cc2)c(C(=O)c2ccc(OS(=O)(=O)c3cnn(C)c3)c(C3CCCC3)c2)c1C` the value was 55 to 60 °C.
`O=C1C2CCCN2S(=O)(=O)N1CSc1ccccc1` (centres undefined) came in with a melting point of 90.5 to 91.5 °C.
For `CC(=O)OC1=C(c2nnc(C)o2)N(C)S(=O)(=O)c2ccccc21` the value was 188 to 190 °C; for `COC(=O)C1CN(C(=O)c2cc(OC)c(OC)c(OC)c2)CCN1C(=O)C1=Cc2cc(OC)c(OC)cc2CCC1` (centres undefined), 134 °C.
For `Cc1sc(-c2ccccc2)nc1COc1cc(COc2ncccc2CC#N)on1` the value was 103 to 104 °C; for `Cc1ccc(C(=O)NC(NC(=S)Nc2cccc(F)c2)C(F)(F)F)cc1` (centres undefined), 205 to 206 °C.
For `CC(C)(C)N(NC(=O)c1ccccc1)C(=O)c1ccco1` the value was 155 to 175 °C; for `CCCc1nnc(/C=C/c2cn(Cc3ccccc3)nc2OCc2ccc(OCc3nc(-c4ccco4)oc3C)c(OC)c2)o1`, 146 to 147 °C.
`COCCOc1ccc(C#CC2(O)CN3CCC2CC3)cc1` (centres undefined) returned a melting point of 148 to 149 °C.
`O=c1c2cc(-c3nnn[nH]3)ccc2oc2ncccc12` yielded a melting point of more than 300 °C.
For `C=C(c1ccccc1)c1cc2cc(OC)ccc2[nH]1` the value was 119 to 121 °C.
For `O=C1c2ccccc2-c2c1c1ccccc1c(=O)n2CCNCCO` the value was 184 °C; for `CCSc1cc(C)nc(SCC)c1NC(=O)CCCCCSc1nc2ccccc2s1`, 81 to 83 °C; for `Oc1ccc(OCc2ccccc2)cc1F`, 67 °C.
For `CC1C(=O)NCCN1C(=O)C(Cl)Cl` (centres undefined) the value was 167 to 168 °C.
The compound `O=C(CCc1ccccc1)CN1C(=O)CC1S(=O)c1ccccc1` (mixture of isomers) had a melting point of 49 to 51 °C.
As for `CC(C)(C)OC(=O)Cn1c(C(=O)O)cc2cnccc21`, the melting point stood at 265 °C.
For `Cc1cn(-c2ccc(N)cc2C(F)(F)F)cn1` the value was 141 to 143 °C.
For `O=C(O)c1ccc2c(c1)C(=O)c1cccc(C(=O)O)c1S2(=O)=O` the value was 350 to 351 °C; for `CN1CCN(c2cccc(Nc3ncc4ccc(-c5cn[nH]c5)n4n3)c2)CC1`, 195 °C.
For `O=C(Cl)c1cnc2cc(OCc3ccccc3)c(OCc3ccccc3)cn2c1=O` the value was 152 °C.
In turn, `CCCc1c(OCC2CO2)ccc(C(C)=O)c1O` (centres undefined) showed a melting point of 53 to 55 °C.
For `Nc1nc(C2CCN(C(=O)Nc3ccccc3)CC2)c2ccccc2n1` the value was 178 to 180 °C.
`CCOC(=O)c1nc(N)sc1C(=O)C(C)Br` (centres undefined) had a melting point of 158 to 160 °C.
For `O=C(O)COc1c(-c2cc(Cl)cc(Cl)c2)cc(C(=O)NCCCCCCc2ccccc2)cc1-c1cc(Cl)cc(Cl)c1` the value was 151 to 159 °C; for `O=C(O)c1ccc(-c2c(-c3ccccc3)[nH]c3ccccc23)cc1`, 252 to 253 °C; for `CCOC(=O)Oc1ccc(/C=C/C(=O)O)cc1`, 173 to 176 °C.
For `Cn1cc(Br)cc(Nc2ccc(OC3CN(C(=O)OC(C)(C)C)C3)cn2)c1=O` the value was 120 to 121 °C.
For `O=C(O)c1cc(Cl)cc2c1O[C@@H]1CCCC[C@H]21` (relative stereo) the value was 132 to 134 °C; for `N=C(N)NC(=O)Cc1c(-c2ccccc2)cccc1-c1ccc2ccccc2c1`, 36.8 to 36.9 °C.
As for `CCOC(=O)N1CCC(O)(CN)CC1`, the melting point came to 82 °C.
For `CC(=O)Nc1c(C(=O)c2ccccc2C)[nH]c2cc(Cl)ccc12` the value was 140 to 142 °C.

Source of the values: a melting point compilation (Tetko et al.; mined from patent text by program, amines drawn as free bases though some values may be those of a salt).
